Consider nine compounds from article PMC5974124, “Equilibrium Thermodynamics, Formation, and Dissociation Kinetics of Trivalent Iron and Gallium Complexes of Triazacyclononane-Triphosphinate (TRAP) Chelators: Unraveling the Foundations of Highly Selective Ga-68 Labeling” (Frontiers in Chemistry, 2018).

Like-named read-outs stand apart in the source and are kept apart here. Marks after values point to notes of the source that are not given here.

Data set [1] in a line: Protonation constants of ligands by pH-potentiometry. It is filed as physicochemical. The conditions noted are these: 0.15 M NaNO3, 25°C. The procedure: For determining the protonation constants of H6TRAP and H3NOTA ligands three parallel pH-potentiometric titration were made with 0.2 M NaOH in 0.002 M ligand solutions.
For pH measurements and titrations, a Metrohm 785 DMP Titrino titration workstation and a Metrohm-6.0233.100 combined electrode were used. Equilibrium measurements were carried out at a constant ionic strength (0.15 M NaNO3 or NaCl) in 6 mL samples at 25°C. Solutions were stirred and continuously purged with N2. Titrations were performed in a pH range of 1.7–12.0. KH-phthalate (pH = 4.005) and borax (pH = 9.177) buffers were used to calibrate the pH meter. For calculation of [H^+] from measured pH values, the method proposed by Irving et al. was used (Irving et al., [1967]). A 0.01 M HNO3 or HCl solution was titrated with the standardized NaOH solution in the presence of 0.15 M NaNO3 or NaCl. Differences between the measured (pHread) and calculated pH (–log[H^+]) values were used to obtain the equilibrium H^+ concentration from the pH values, measured in the titration experiments. For equilibrium calculations, the stoichiometric water ionic product (pKw) is also needed to calculate [H^+] values in basic conditions. The VNaOH–pHread data pairs of the HNO3–NaOH or HCl–NaOH titration obtained in the pH range 10.5–12.0 have been used to calculate the pKw value (pKw = 13.84). For calculation of the equilibrium constants, the program PSEQUAD (Zekany and Nagypal, [1985]) was used. The standard deviation (SD) of the equilibrium parameters calculated by the program PSEQUAD is defined by Equation (1)
Protonation equilibria of the TRAP^6−, NOTA^3− and Bha^− ligands were studied by pH-potentiometry. The protonation constants (log KiH ) of ligands defined by Equation (3) are listed in Table 1 (standard deviations are shown in parentheses). The charges of ligands and complexes will be indicated when it is necessary.
(3) KiH=[HiL]/[Hi−1L][H^+] i=0,1,2…6

Data set [2] can be described thus: Stability and protonation constants of Fe^III complexes (pH-potentiometry, spectrophotometry, competition with Bha^−). It is filed as physicochemical. The conditions noted are these: 0.15 M NaNO3, 25°C. The procedure:
Stability constant of [Fe(Bha)]^2+ complex was determined by spectrophotometry, studying the Fe^III-HBha systems at the absorption band of Fe^III-complex over the wavelength range of 400–800 nm in two sets of experiments. Individual samples were prepared in the first series in which the concentrations of Fe^III and HBha was constant 0.2 and 2.0 mM, while that of the H^+ was varied between […] (eight samples, Figure S1). The H^+ concentration in the samples was adjusted by addition of calculated amounts of 2.0 M HNO3. The ionic strength was constant in the samples with [H^+] < 0.15 M ([H^+]+[Na^+] = 0.15 M). Samples were kept at 25°C for a week. Absorbance values were determined at 11 wavelengths (400, 415, 430, 445, 460, 475, 490, 505, 520, 535, and 550 nm). In the second set, spectrophotometric titrations were done with samples containing HBha ligand in 2.0 mM concentration, whereas the concentration of Fe^III was varied between 0.1–0.3 mM (Figures S2–S4). The pH of the samples was adjusted using concentrated NaOH and HNO3 solutions in the pH range 1.7–11.0 (0.15 M NaNO3 and 25°C). For calculation of the equilibrium constants, the best fit of the absorbance–pH data was obtained by assuming formation of [Fe(Bha)]^2+, [Fe(Bha)2]^+, [Fe(Bha)3], and [Fe(Bha)2(OH)2]^− species (Figure S5). The molar absorptivity of [Fe(Bha)]^2+, [Fe(Bha)2]^+, [Fe(Bha)3] and [Fe(Bha)2(OH)2]^− species were also determined at the same 11 wavelengths in these experiments (Figure S6).
The stability constant of the [Fe(TRAP)]^3− complex has been determined by spectrophotometry, using competition reactions between HTRAP^5− and Bha^− for Fe^III at pH = 10.0. Concentration of [Fe(TRAP)]^3− was 0.2 mM, while that of HBha was varied between 0.0 and 1.5 mM (6 samples). The samples were kept at 25°C for 2 weeks. Absorbance values of the Fe^III-HTRAP^5−-Bha^− systems were determined at 11 wavelengths (400, 415, 430, 445, 460, 475, 490, 505, 520, 535, and 550 nm). The molar absorptivities of [Fe(TRAP)]^3− and [Fe(TRAP)OH]^4− in equilibrium solutions were determined by recording the absorption spectra of 0.1, 0.2, and 0.3 mM solution of [Fe(TRAP)]^3− in the pH range 6.0–12.0. The molar absorptivity of [Fe(Bha)2(OH)2]^− species was determined in the separate experiments. Absorbance and pH values were determined in the samples after equilibration (the time needed to reach the equilibria was determined by spectrophotometry). Spectrophotometric measurements were done using 1.0 cm cells with a Cary 1E spectrophotometer at 25°C. Protonation constants of the Fe^III complex formed with TRAP^6− were determined by direct pH-potentiometric titration at 1:1 metal to ligand ratios (both concentrations were 0.002 M). For calculation of the logKMHiL values, the mL base–pH data used were measured in the pH range 1.7 −12.0.
For pH measurements and titrations, a Metrohm 785 DMP Titrino titration workstation and a Metrohm-6.0233.100 combined electrode were used. Equilibrium measurements were carried out at a constant ionic strength (0.15 M NaNO3 or NaCl) in 6 mL samples at 25°C. Solutions were stirred and continuously purged with N2. Titrations were performed in a pH range of 1.7–12.0. […] For calculation of [H^+] from measured pH values, the method proposed by Irving et al. was used (Irving et al., [1967]). […] Differences between the measured (pHread) and calculated pH (–log[H^+]) values were used to obtain the equilibrium H^+ concentration from the pH values, measured in the titration experiments. […]

For data set [3] the following is noted: 25°C, cited from earlier work.
The conditions of data set [4]: Fe^III, 25°C, cited from earlier work.
For data set [5] the following is noted: cited from earlier work; for log β3OH hydrolysis constant: M(OH)3, ref Baes and Mesmer; for log β3OH hydrolysis constant / log β2OH hydrolysis constant / log β1OH hydrolysis constant: [1976]; for log β2OH hydrolysis constant: [M(OH)2]^+; for log β1OH hydrolysis constant: [M(OH)]^2+.
The conditions of data set [6]: 25°C, cited from earlier work. This is another data set of the same source.
On the set-up of data set [7]: method as in Brucher and Sherry, [1990]. The settings on record: 25°C, ref Brucher and Sherry, [1990]; cited from earlier work.
Details of data set [8]: method as in Notni et al., [2010]; Baranyai et al., [2015]. The conditions noted are these: Zn^II, ref Notni et al., [2010]; Baranyai et al., [2015]; cited from earlier work.
Where [9] appears, read: 0.2 M KCl, ref Farkas et al., [1998].
[10] abbreviates: ref Baes and Mesmer, listed as Fe^3+.
Setting [11] is: 0.1 M KCl, ref Clarke and Martell, [1991].
Where [12] appears, read: 0.1 M Me4NCl, ref Drahos et al., [2011].
Where [13] appears, read: 0.15 M NaCl, ref Baranyai et al., [2015].
Setting [14] is: Ga^III, 0.1 M Me4NCl, ref Simecek et al., [2012].

`O=C(NO)c1ccccc1` [Bha^−, benzhydroxamic acid]: in data set [1], the “log K1H protonation constant” value is reported as 8.53(3). In data set [2], the “logK ML2” value is given as 9.03(2), the “logK ML3” value was 7.41(3), the “logK ML stability constant” value is given as 10.80(2) and the “logβFeL2(OH)2” value is listed as 6.68(5). For the same compound, the “log K1H protonation constant” value in data set [3] (setting [9]) is recorded as 8.69. Besides, in data set [4] (setting [9]), the “logK ML2” value is 10.12, the “logK ML3” value is on record as 7.60 and the “logK ML stability constant” value is recorded as 11.08.
As to `[Fe+3]` [Fe^III], the “log β3OH hydrolysis constant” value in data set [5] is −12.0; in data set [5] (listed as Fe^3+), “–12.0”. Besides, in data set [5] ([Fe(OH)4]^-, ref Baes and Mesmer, 1976), the “logβ4^OH hydrolysis constant” value is recorded as “–21.6”. Further, the “log β2OH hydrolysis constant” value in data set [5] (ref Baes and Mesmer) was −5.67; in data set [5] (setting [10]), “–5.67”. The “log β1OH hydrolysis constant” value is on record as −2.19 in data set [5] (ref Baes and Mesmer); “–2.19” in data set [5] (setting [10]).
For the compound `[Ga+3]` [Ga^III], the “log β3OH hydrolysis constant” value in data set [5] is −8.2. In addition, in data set [5] (ref Baes and Mesmer), the “log β2OH hydrolysis constant” value was −5.92 and the “log β1OH hydrolysis constant” value was −2.97.
As to `O=C(O)CN1CCN(CC(=O)O)CCN(CC(=O)O)CC1` [NOTA^3−, 1,4,7-triazacyclononane-1,4,7-triacetic acid], the “log K1H protonation constant” value is recorded as 11.94(2) in data set [1], 11.98 in data set [3] (setting [11]), 13.17 in data set [3] (setting [12]) and 12.16 in data set [3] (setting [13]). For the same compound, the “log K2H protonation constant” value in data set [1] is 5.71(3); in data set [3] (setting [11]) it was 5.65; in data set [3] (setting [12]) it was 5.74; in data set [3] (setting [13]), 5.75. The “log K3H protonation constant” value in data set [1] is listed as 3.14(3); in data set [3] (setting [11]), 3.18; in data set [3] (setting [12]), 3.22; in data set [3] (setting [13]), 3.18. Besides, the “log K4H protonation constant” value in data set [1] was 1.60(2); in data set [3] (setting [12]) it was 1.96; in data set [3] (setting [13]), 1.90. Besides, the “Σlog KiH total ligand basicity” value in data set [1] (for TRAP^6− log K3H, K4H, K5H not considered) is given as 22.39; in data set [3] (setting [12]), 24.09; in data set [3] (0.15 M NaCl, for TRAP^6− log K3H, K4H, K5H not considered, ref Baranyai et al., [2015]), 22.99. The “logK M(L)OH” value in data set [2] was 9.12(4)^e; in data set [6] (setting [14]), 9.83. In addition, the “logK MHL protonation constant of complex” value in data set [6] (setting [14]) was 0.9. Further, the “logK ML stability constant” value in data set [6] (setting [14]) is 29.60; in data set [4] (setting [11]), 28.3.
`O=C([O-])CN1CCN(CC(=O)[O-])CCN(CC(=O)[O-])CC1.[Ce+3]` [[Ce(NOTA)]]: the “kOH formation rate constant” value in data set [7] was 6.3e+07 M⁻¹ s⁻¹.
`O=C([O-])CN1CCN(CC(=O)[O-])CCN(CC(=O)[O-])CC1.[Er+3]` [[Er(NOTA)]]: the “kOH formation rate constant” value in data set [7] was 5.5e+07 M⁻¹ s⁻¹.
For the compound `O=C([O-])CN(CCN(CC(=O)[O-])Cc1ccccc1[O-])Cc1ccccc1[O-].[Ga+3]` [[Ga(HBED)]^−], in data set [6] (0.1 M KCl, ref Ma et al., [1994]), the “logKGa(HBED) stability constant” value was 38.51.
Take `O=C([O-])CN1CCN(CC(=O)[O-])CCN(CC(=O)[O-])CC1.[Gd+3]` [[Gd(NOTA)]]: the “kOH formation rate constant” value in data set [7] is 7.1e+07 M⁻¹ s⁻¹.
With `O=C([O-])CCP(=O)(O)CN1CCN(CP(=O)(O)CCC(=O)[O-])CCN(CP(=O)(O)CCC(=O)O)CC1.[Zn+2]` [[Zn(TRAP)]^4−], in data set [8], the logKML stability constant was 16.07.
